This is an account of results in US20240148821A1, “PHARMACEUTICAL USE OF CYCLIC PEPTIDE COMPOUND” (CHUGAI SEIYAKU KABUSHIKI KAISHA, priority 2021, published 2024).

Each structure is given as a SMILES string. Numbered stars: 1 amine (or outer) side, 2 acyl side, 3 side chain; on linkers, the order of the positions; unused ones are H or OH. Bridge positions count the residues as written; N and C are the ends. Square brackets hold non-standard residues; d marks the D form. Peptide text beside a SMILES is read from it. * marks the point of attachment. hPhe(3,5-F2-4-CF3) = N[C@@H](CCc1cc(F)c(C(F)(F)F)c(F)c1)C(=O)O; hPhe(3-Cl-4-CF3) = N[C@@H](CCc1ccc(C(F)(F)F)c(Cl)c1)C(=O)O; NEtPhe(4-CF3) = CCN[C@@H](Cc1ccc(C(F)(F)F)cc1)C(=O)O; NMePhe(4-CF3) = CN[C@@H](Cc1ccc(C(F)(F)F)cc1)C(=O)O; Pro(trans-4-Ph) = O=C(O)[C@@H]1C[C@@H](c2ccccc2)CN1; hPhe(4-CF3) = N[C@@H](CCc1ccc(C(F)(F)F)cc1)C(=O)O; NMePhe(4-Cl) = CN[C@@H](Cc1ccc(Cl)cc1)C(=O)O; NMeNle(6-CHF2) = CN[C@@H](CCCCC(F)F)C(=O)O; NMedβ3hAla = C[C@H](CC(=O)[*:2])N(C)[*:1]; NMeAla(cPent) = CN[C@@H](CC1CCCC1)C(=O)O; NMeGly(cPent) = CN[C@H](C(=O)O)C1CCCC1; Pro(4,4-F2) = O=C(O)[C@@H]1CC(F)(F)CN1; Ala(cPent) = N[C@@H](CC1CCCC1)C(=O)O; NMeGly(cBu) = CN[C@H](C(=O)O)C1CCC1; NMeCha = CN[C@@H](CC1CCCCC1)C(=O)O; NMeGly(cPr) = CN[C@H](C(=O)O)C1CC1; Hyp = O=C(O)[C@@H]1C[C@@H](O)CN1; NMeChg = CN[C@H](C(=O)O)C1CCCCC1; NMeI = CC[C@H](C)[C@H](NC)C(=O)O; d(β3hL) = CC(C)C[C@@H](N)CC(=O)O; NMeD = CN[C@@H](CC(=O)O)C(=O)O; NMeL = CN[C@@H](CC(C)C)C(=O)O; NMeV = CN[C@H](C(=O)O)C(C)C; NMeA = CN[C@@H](C)C(=O)O; Piperidide = C1CCN(*)CC1; Ac5c = NC1(C(=O)O)CCCC1; Aze = O=C(O)[C@@H]1CCN1; Ac4c = NC1(C(=O)O)CCC1; Sar = CNCC(=O)O

For this experiment, the target named is protein-protein interaction between Kras and SOS1 (biotin-tagged human Kras loaded with GDP, His-tagged human SOS1) (Homo sapiens (Human), UniProt P01116, G12D). Description: Protein-protein interaction inhibition between Kras and SOS1 (KrasG12D-SOS PPI) using AlphaScreen.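 Also: kras produced in E. coli, Ni-coupled donor beads and streptavidin acceptor beads, excitation 680 nm with emission detected at 520–620 nm via singlet oxygen transfer.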 The format is biochemical. The conditions noted are these: AlphaScreen; biotin-tagged human Kras loaded with GDP, His-tagged human SOS1; read-out: KRAS G12D-SOS PPI IC50. Background: In Alpha technology, singlet oxygen from a donor bead excites a nearby acceptor bead.
Usually IC50 stands for the concentration that inhibits the measured activity by half. With `CC(C)C[C@H]1C(=O)N[C@@H](CC2CCCC2)C(=O)N(C)[C@@H](C)C(=O)N2CC[C@H]2C(=O)N(C)[C@@H](CC2CCCCC2)C(=O)N(C)CC(=O)N[C@@H](CCc2ccc(C(F)(F)F)c(Cl)c2)C(=O)N2CCC[C@H]2C(=O)NC2(CCCC2)C(=O)N(C)[C@@H](C(C)C)C(=O)N(C)[C@H](C(=O)N2CCCCC2)CC(=O)N1C` [Compound 84] ([NMeL][Ala(cPent)][NMeA][Aze][NMeCha][Sar][hPhe(3-Cl-4-CF3)]P[Ac5c][NMeV][NMeD]-Piperidide; lactam N-11), the IC50 amounted to 73 nM.

For `CC[C@H](C)[C@@H]1NC(=O)[C@H](CC(C)C)N(C)C(=O)C[C@@H](C)N(C)C(=O)[C@H]([C@@H](C)CC)N(C)C(=O)C2(CCC2)NC(=O)[C@@H]2CC(F)(F)CN2C(=O)[C@H](CCc2cc(F)c(C(F)(F)F)c(F)c2)NC(=O)CN(C)C(=O)[C@H](Cc2ccc(C(F)(F)F)cc2)N(CC)C(=O)[C@@H]2CCN2C(=O)[C@H](C)N(C)C1=O` [Compound 85] (cyclo([Ac4c][NMeI][NMedβ3hAla][NMeL]I[NMeA][Aze][NEtPhe(4-CF3)][Sar][hPhe(3,5-F2-4-CF3)][Pro(4,4-F2)])), the IC50 turned out to be 15 nM.

For `CC[C@H](C)[C@@H]1NC(=O)[C@H](CC(C)C)N(C)C(=O)C[C@@H](C)N(C)C(=O)[C@H](C(C)C)N(C)C(=O)C2(CCCC2)NC(=O)[C@@H]2CCCN2C(=O)[C@H](CCc2ccc(C(F)(F)F)c(Cl)c2)NC(=O)CN(C)C(=O)[C@H](CC2CCCC2)N(C)C(=O)CN(C)C(=O)CN(C)C1=O` [Compound 88] (cyclo([Ac5c][NMeV][NMedβ3hAla][NMeL]I[Sar][Sar][NMeAla(cPent)][Sar][hPhe(3-Cl-4-CF3)]P)), the half-maximal inhibitory concentration (IC50) was 18 nM.

`CC[C@H](C)[C@@H]1NC(=O)[C@H](CC(C)C)N(C)C(=O)C[C@@H](C(=O)N2CCCCC2)N(C)C(=O)[C@H](C2CCCCC2)N(C)C(=O)C2(CCCC2)NC(=O)[C@@H]2C[C@@H](c3ccccc3)CN2C(=O)[C@H](CCc2ccc(C(F)(F)F)c(Cl)c2)NC(=O)CN(C)C(=O)[C@H](CC2CCCCC2)N(C)C(=O)CN(C)C(=O)CN(C)C1=O` [Compound 90] ([NMeL]I[Sar][Sar][NMeCha][Sar][hPhe(3-Cl-4-CF3)][Pro(trans-4-Ph)][Ac5c][NMeChg][NMeD]-Piperidide; lactam N-11): the IC50 worked out at 5 nM.

`CC[C@H](C)[C@@H]1NC(=O)[C@H](CCCCC(F)F)N(C)C(=O)C[C@@H](C(=O)N2CCCCC2)N(C)C(=O)[C@H](C(C)C)N(C)C(=O)C2(CCCC2)NC(=O)[C@@H]2CCCN2C(=O)[C@H](CCc2ccc(C(F)(F)F)c(Cl)c2)NC(=O)CN(C)C(=O)[C@H](CC2CCCCC2)N(C)C(=O)[C@@H]2CCN2C(=O)[C@H](C)N(C)C1=O` [Compound 94] ([NMeNle(6-CHF2)]I[NMeA][Aze][NMeCha][Sar][hPhe(3-Cl-4-CF3)]P[Ac5c][NMeV][NMeD]-Piperidide; lactam N-11): the IC50 was found to be 3.3 nM.

With `CCO[C@@H]1C[C@H]2C(=O)NC3(CCC3)C(=O)N(C)[C@@H]([C@@H](C)CC)C(=O)N(C)[C@H](C)CC(=O)N(C)[C@@H](CC(C)C)C(=O)N[C@@H]([C@@H](C)CC)C(=O)N(C)[C@@H](C)C(=O)N3CC[C@H]3C(=O)N(C)[C@@H](Cc3ccc(C(F)(F)F)cc3)C(=O)N(C)CC(=O)N[C@@H](CCc3ccc(C(F)(F)F)c(Cl)c3)C(=O)N2C1` [Compound 99] (cyclo([Ac4c][NMeI][NMedβ3hAla][NMeL]I[NMeA][Aze][NMePhe(4-CF3)][Sar][hPhe(3-Cl-4-CF3)][Hyp](Et))), the IC50 turned out to be 2.9 nM.

`CC[C@H](C)[C@@H]1NC(=O)[C@H](C2CC2)N(C)C(=O)C[C@@H](C(=O)N2CCCCC2)N(C)C(=O)[C@H](C(C)C)N(C)C(=O)C2(CCCC2)NC(=O)[C@@H]2CCCN2C(=O)[C@H](CCc2ccc(C(F)(F)F)c(Cl)c2)NC(=O)CN(C)C(=O)[C@H](CC2CCCCC2)N(C)C(=O)[C@@H]2CCN2C(=O)[C@H](C)N(C)C1=O` [Compound 100] ([NMeGly(cPr)]I[NMeA][Aze][NMeCha][Sar][hPhe(3-Cl-4-CF3)]P[Ac5c][NMeV][NMeD]-Piperidide; lactam N-11): the IC50 was found to be 7.4 nM.

`CC[C@H](C)[C@@H]1NC(=O)[C@H](C(C)C)N(C)C(=O)C[C@@H](CC(C)C)NC(=O)[C@H](CC(C)C)N(C)C(=O)C2(CCCC2)NC(=O)[C@H](CC(C)C)N(C)C(=O)[C@H](CCc2ccc(C(F)(F)F)cc2)NC(=O)CN(C)C(=O)[C@H](Cc2ccc(Cl)cc2)N(C)C(=O)CN(C)C(=O)CN(C)C1=O` [Compound 113] (cyclo([Ac5c][NMeL][d(β3hL)][NMeV]I[Sar][Sar][NMePhe(4-Cl)][Sar][hPhe(4-CF3)][NMeL])): the IC50 stood at 280 nM.

As for `CC[C@H](C)[C@@H]1NC(=O)[C@H](CC(C)C)N(C)C(=O)C[C@@H](C(=O)N2CCCCC2)N(C)C(=O)[C@H](C2CCCC2)N(C)C(=O)C2(CCCC2)NC(=O)[C@@H]2CCCN2C(=O)[C@H](CCc2ccc(C(F)(F)F)c(Cl)c2)NC(=O)CN(C)C(=O)[C@H](C2CCC2)N(C)C(=O)[C@@H]2CCN2C(=O)[C@H](C)N(C)C1=O` [Compound 127] ([NMeL]I[NMeA][Aze][NMeGly(cBu)][Sar][hPhe(3-Cl-4-CF3)]P[Ac5c][NMeGly(cPent)][NMeD]-Piperidide; lactam N-11), the IC50 was determined as 0.43 nM.
